Assay results from ChEMBL document CHEMBL1201862, “PubChem BioAssay data set” (2004).
“Also recorded” adds a separate entry of the source. Active and inactive are the calls of the source.

Experiments:
[1] = target: T1, Apoptotic protease-activating factor 1 (Homo sapiens, UniProt O14727); assay: activation of Apaf-1 mediated apoptosis – fluorescent, uHTS hits, dose response (AID 588554); type: functional
T1 sequence (O14727 whole entry): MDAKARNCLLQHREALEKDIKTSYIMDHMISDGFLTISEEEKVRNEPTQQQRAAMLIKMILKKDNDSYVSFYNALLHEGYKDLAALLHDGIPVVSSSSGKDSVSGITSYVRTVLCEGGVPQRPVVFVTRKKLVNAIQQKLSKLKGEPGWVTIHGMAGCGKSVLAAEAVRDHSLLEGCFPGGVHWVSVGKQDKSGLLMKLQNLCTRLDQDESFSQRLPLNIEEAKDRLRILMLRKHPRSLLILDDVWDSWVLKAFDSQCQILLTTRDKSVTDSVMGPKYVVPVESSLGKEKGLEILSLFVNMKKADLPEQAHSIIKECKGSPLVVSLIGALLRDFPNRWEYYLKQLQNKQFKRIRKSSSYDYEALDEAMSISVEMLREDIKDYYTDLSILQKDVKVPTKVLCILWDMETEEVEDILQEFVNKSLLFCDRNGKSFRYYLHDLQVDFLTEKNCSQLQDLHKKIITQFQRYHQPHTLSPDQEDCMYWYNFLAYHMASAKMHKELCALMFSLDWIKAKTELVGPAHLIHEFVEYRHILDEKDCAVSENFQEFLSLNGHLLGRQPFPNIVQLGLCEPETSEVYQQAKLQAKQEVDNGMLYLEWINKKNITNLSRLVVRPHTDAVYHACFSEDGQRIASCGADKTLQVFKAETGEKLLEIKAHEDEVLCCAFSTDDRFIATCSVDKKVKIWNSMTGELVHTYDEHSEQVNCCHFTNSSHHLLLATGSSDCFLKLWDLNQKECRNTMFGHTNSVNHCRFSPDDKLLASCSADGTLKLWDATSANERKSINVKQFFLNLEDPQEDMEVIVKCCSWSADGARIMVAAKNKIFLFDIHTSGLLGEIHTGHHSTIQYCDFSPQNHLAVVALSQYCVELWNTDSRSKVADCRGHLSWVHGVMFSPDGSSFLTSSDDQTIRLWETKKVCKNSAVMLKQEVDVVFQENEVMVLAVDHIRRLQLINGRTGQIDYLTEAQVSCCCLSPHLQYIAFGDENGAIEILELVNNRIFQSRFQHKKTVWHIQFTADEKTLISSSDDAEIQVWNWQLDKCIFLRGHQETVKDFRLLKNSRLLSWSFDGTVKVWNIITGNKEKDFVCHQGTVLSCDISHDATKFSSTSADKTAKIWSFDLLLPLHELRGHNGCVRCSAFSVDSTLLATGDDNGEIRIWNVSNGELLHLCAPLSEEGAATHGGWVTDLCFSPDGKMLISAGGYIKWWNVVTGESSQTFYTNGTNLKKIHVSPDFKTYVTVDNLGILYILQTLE

[2] = target: 1-phosphatidylinositol 4,5-bisphosphate phosphodiesterase beta-3 (Homo sapiens, UniProt Q01970); assay: Fluorescence-based biochemical high throughput dose response assay to identify inhibitors of phospholipase C isozymes (PLC-B3).
[3] = target: T2, Small ubiquitin-related modifier 1 (Homo sapiens, UniProt P63165); assay: inhibitors of SUMO1 peptide binding, dose response, biochemical, fluorescence polarization, uHTS hits (AID 624382); type: functional; settings: read-out: IC50_Mean
[4] = target: 1-phosphatidylinositol 4,5-bisphosphate phosphodiesterase gamma-1 (Homo sapiens, UniProt P19174); assay: Counterscreen for inhibitors of phospholipase C isozymes (PLC-B3): Fluorescence-based biochemical high throughput dose response assay to identify inhibitors of phospholipase C isozymes (PLC-gamma1).
[5] = target: T2, Small ubiquitin-related modifier 1; assay: inhibitors of SUMO1 partner interactions, dose response, biochemical, FRET (AID 624383); type: functional; settings: read-out: IC50_Mean
[6] = target: NAD-dependent protein deacylase sirtuin-5, mitochondrial (Homo sapiens, UniProt Q9NXA8); assay: SIRT5 desuccinylase inhibitors, dose response, biochemical, fluorescence imaging, cherry-pick, set 5 (AID 720591);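 note: desuccinylation of succinyl peptide AMC substrate read as fluorescence after trypsin release; potency of inhibitors that lower fluorescence and may act on trypsin instead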
[7] = growth suppression of PTEN-null colon cells, dose response, cell-based, HCT116 PTEN knockout (AID 1047); type: functional;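 note: HCT116 colon tumor cells with PTEN knocked out; cells exposed to compound for 60 hours before readout; potency for loss of cell viability measured by luminescence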
[8] = growth suppression of beta-catenin-knockout colon cells, dose response, cell-based, HCT116, human colon tumor (AID 1045); type: functional;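 note: HCT116 colon tumor cells with beta catenin knocked out; cells exposed to compound for 60 hours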
[9] = Vero cell cytotoxicity, dose response, cytotoxicity control for Vif-APOBEC3G degradation inhibitor project, Vero cells (AID 1117358); type: functional; settings: Human immunodeficiency virus 1, Vero
[10] = insulin promoter down-regulators in MIN6 cells, imaging, high-content screening, mouse beta cells (AID 1628); type: functional
[11] = target: Intestinal-type alkaline phosphatase (Mus musculus, UniProt P24822); assay: PubChem AID 488785; type: functional
[12] = target: Intestinal-type alkaline phosphatase (Homo sapiens, UniProt P09923); assay: inhibition of human intestinal alkaline phosphatase – biochemical, dose response (AID 488876); type: functional
[13] = inhibitors of Vif binding to APOBEC3G peptide, primary screen, biochemical, TR-FRET, GST-Vif 1-94, biotin-A3G peptide, dose response retest (AID 1117319); type: functional;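 note: TR-FRET signal of purified GST-Vif binding a biotinylated A3G peptide; inhibitors lower the FRET signal by blocking Vif and A3G binding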
[14] = target: T3, Histone-lysine N-methyltransferase NSD2 (Homo sapiens, UniProt O96028); type: biochemical
T3 sequence (O96028 whole entry): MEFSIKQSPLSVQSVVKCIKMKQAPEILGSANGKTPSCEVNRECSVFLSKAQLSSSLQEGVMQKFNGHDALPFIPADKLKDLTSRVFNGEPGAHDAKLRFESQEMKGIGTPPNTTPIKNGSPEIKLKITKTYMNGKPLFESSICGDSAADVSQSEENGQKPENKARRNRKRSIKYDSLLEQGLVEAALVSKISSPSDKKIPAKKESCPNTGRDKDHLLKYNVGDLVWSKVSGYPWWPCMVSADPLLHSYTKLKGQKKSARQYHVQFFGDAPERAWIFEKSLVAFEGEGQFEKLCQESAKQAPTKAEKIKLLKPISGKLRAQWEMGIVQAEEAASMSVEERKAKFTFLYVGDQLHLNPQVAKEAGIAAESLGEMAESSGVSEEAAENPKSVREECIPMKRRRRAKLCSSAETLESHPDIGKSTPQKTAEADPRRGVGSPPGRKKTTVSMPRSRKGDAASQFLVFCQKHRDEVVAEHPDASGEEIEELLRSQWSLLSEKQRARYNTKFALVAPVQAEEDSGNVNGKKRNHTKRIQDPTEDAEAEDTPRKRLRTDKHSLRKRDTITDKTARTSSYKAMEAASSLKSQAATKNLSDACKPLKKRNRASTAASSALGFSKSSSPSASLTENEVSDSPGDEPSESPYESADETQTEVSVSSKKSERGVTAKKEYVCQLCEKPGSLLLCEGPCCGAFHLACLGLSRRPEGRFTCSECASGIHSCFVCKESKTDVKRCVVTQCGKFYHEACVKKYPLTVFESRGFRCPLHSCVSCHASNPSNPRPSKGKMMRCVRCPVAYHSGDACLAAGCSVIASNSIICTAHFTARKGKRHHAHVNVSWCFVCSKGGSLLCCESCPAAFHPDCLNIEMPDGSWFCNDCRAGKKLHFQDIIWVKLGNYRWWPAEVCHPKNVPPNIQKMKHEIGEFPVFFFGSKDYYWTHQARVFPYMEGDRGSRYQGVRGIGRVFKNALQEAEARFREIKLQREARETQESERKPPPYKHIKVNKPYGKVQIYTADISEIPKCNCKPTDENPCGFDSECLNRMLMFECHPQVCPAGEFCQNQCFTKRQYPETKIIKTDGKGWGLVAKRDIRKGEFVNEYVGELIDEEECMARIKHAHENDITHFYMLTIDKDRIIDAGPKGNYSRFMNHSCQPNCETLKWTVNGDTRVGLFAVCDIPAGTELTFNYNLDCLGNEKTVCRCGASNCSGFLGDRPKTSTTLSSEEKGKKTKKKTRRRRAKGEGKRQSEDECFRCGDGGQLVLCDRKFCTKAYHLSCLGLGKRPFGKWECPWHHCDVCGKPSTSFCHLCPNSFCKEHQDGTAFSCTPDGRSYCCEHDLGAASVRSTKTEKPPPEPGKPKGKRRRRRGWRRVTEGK

[15] = cytotoxicity in MIN6 insulinoma cells, dose response, cytotoxicity control, cell-based, mouse insulinoma (AID 2122); type: functional;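 note: confirmatory high-throughput counterscreen run to flag cytotoxic compounds; mouse MIN-6 beta cells carrying an insulin promoter eGFP reporter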
[16] = THP-1 cell cytotoxicity, dose response, cytotoxicity control for Vif-APOBEC3G degradation inhibitor project, THP-1 cells (AID 1117359); type: functional; settings: Human immunodeficiency virus 1, THP-1
[17] = target: T4, Alkaline phosphatase, tissue-nonspecific isozyme (Homo sapiens, UniProt P05186); assay: TNAP enzyme inhibition by screening hits, dose response, selectivity assay for mouse IAP inhibitor project, biochemical, human TNAP, uHTS hits (AID 488906); type: functional
T4 sequence (P05186 whole entry): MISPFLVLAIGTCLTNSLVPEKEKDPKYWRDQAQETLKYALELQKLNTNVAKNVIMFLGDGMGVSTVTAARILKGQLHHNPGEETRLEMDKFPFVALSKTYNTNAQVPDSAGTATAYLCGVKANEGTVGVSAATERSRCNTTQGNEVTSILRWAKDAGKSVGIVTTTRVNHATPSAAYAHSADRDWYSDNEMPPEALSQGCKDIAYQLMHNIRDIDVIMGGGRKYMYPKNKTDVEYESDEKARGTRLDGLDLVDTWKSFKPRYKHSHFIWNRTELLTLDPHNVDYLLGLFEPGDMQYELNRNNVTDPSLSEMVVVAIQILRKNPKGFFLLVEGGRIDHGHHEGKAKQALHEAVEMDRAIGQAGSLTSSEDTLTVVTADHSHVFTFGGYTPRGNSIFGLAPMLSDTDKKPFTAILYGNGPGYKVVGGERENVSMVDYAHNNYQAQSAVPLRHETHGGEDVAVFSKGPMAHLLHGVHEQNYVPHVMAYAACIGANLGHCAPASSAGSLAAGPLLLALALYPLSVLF

Cytochrome P450 1A2 = target: T5, Cytochrome P450 1A2 (Homo sapiens, UniProt P05177);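 note: PubChem cytochrome P450 panel assay, CYP1A2 panel member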
T5 sequence (P05177 whole entry): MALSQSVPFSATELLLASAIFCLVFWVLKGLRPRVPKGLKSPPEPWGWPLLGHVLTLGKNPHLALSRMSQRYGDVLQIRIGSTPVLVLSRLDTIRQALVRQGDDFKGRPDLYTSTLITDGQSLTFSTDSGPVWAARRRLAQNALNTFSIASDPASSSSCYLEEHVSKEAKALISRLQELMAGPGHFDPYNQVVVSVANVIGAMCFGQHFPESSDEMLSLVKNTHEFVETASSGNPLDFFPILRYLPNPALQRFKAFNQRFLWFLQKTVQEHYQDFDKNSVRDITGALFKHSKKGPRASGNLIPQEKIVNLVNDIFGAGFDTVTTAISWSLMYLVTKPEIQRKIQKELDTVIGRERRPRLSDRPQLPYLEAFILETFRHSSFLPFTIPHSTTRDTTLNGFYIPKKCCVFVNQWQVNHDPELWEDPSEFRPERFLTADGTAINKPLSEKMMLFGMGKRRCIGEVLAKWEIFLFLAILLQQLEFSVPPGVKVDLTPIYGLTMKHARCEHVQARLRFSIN

Cytochrome P450 2C19 = Cytochrome P450 2C19 (Homo sapiens, UniProt P33261); assay: Cytochrome panel assay with activity outcomes. Panel member name: p450-cyp2c19 Compounds with AC50 equal or less than 10 uM are considered active; type: functional
Cytochrome P450 2D6 = Cytochrome P450 2D6 (Homo sapiens, UniProt P10635);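 note: CYP2D6 member of a cytochrome P450 panel assay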
[18] = inhibitors of cytokine-induced nitrite release, dose response, cell-based, Griess absorbance, INS-1E, dry powder, set 3 (AID 488870); type: functional; settings: Rattus norvegicus

Chain of Cytochrome P450 2C19 (P33261 whole entry): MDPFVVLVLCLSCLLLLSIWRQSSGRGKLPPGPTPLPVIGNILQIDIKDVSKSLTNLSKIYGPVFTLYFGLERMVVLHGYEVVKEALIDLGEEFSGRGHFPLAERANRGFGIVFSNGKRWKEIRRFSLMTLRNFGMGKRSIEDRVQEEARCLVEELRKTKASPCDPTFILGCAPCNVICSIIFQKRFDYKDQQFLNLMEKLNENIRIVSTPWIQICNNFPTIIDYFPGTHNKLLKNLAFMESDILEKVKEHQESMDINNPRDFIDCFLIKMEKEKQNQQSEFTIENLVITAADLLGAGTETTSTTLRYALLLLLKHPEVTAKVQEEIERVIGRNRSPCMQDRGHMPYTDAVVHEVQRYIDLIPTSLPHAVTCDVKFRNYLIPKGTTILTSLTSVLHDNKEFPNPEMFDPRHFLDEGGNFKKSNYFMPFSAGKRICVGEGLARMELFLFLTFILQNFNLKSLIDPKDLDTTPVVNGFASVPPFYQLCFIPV
T2 sequence (P63165 whole entry): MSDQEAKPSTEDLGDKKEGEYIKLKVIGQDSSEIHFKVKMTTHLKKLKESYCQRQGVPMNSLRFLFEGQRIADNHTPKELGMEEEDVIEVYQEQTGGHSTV
Chain of Cytochrome P450 2D6 (P10635 whole entry): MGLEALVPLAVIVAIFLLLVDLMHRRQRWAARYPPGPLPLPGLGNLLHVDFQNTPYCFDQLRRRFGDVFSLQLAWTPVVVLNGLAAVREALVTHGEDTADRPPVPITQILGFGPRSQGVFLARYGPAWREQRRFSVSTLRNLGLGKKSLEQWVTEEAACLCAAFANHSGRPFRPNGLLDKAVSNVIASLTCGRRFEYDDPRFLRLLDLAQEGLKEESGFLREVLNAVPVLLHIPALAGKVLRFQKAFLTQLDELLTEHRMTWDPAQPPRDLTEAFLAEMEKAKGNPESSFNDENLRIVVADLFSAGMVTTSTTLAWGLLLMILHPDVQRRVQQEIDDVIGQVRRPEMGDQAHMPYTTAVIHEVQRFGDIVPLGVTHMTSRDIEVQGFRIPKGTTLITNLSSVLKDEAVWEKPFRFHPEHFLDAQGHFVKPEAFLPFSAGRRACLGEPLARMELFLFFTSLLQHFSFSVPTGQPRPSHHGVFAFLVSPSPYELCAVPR
Chain of Intestinal-type alkaline phosphatase (Mus musculus, UniProt P24822) (P24822 whole entry): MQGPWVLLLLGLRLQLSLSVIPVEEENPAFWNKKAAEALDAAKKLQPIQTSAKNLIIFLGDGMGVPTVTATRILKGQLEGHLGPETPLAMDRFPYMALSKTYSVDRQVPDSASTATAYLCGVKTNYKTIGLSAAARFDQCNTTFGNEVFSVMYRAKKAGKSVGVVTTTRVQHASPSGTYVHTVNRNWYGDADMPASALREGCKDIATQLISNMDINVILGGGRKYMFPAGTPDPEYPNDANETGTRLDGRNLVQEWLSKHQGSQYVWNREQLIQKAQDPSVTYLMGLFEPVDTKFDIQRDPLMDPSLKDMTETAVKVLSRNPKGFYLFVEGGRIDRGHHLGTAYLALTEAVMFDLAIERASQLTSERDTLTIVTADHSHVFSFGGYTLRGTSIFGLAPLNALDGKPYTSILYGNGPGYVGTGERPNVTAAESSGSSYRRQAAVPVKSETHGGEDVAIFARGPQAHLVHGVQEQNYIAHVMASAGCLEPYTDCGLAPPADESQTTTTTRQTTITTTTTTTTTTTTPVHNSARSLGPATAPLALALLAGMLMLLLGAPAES
Chain of 1-phosphatidylinositol 4,5-bisphosphate phosphodiesterase gamma-1 (P19174 whole entry): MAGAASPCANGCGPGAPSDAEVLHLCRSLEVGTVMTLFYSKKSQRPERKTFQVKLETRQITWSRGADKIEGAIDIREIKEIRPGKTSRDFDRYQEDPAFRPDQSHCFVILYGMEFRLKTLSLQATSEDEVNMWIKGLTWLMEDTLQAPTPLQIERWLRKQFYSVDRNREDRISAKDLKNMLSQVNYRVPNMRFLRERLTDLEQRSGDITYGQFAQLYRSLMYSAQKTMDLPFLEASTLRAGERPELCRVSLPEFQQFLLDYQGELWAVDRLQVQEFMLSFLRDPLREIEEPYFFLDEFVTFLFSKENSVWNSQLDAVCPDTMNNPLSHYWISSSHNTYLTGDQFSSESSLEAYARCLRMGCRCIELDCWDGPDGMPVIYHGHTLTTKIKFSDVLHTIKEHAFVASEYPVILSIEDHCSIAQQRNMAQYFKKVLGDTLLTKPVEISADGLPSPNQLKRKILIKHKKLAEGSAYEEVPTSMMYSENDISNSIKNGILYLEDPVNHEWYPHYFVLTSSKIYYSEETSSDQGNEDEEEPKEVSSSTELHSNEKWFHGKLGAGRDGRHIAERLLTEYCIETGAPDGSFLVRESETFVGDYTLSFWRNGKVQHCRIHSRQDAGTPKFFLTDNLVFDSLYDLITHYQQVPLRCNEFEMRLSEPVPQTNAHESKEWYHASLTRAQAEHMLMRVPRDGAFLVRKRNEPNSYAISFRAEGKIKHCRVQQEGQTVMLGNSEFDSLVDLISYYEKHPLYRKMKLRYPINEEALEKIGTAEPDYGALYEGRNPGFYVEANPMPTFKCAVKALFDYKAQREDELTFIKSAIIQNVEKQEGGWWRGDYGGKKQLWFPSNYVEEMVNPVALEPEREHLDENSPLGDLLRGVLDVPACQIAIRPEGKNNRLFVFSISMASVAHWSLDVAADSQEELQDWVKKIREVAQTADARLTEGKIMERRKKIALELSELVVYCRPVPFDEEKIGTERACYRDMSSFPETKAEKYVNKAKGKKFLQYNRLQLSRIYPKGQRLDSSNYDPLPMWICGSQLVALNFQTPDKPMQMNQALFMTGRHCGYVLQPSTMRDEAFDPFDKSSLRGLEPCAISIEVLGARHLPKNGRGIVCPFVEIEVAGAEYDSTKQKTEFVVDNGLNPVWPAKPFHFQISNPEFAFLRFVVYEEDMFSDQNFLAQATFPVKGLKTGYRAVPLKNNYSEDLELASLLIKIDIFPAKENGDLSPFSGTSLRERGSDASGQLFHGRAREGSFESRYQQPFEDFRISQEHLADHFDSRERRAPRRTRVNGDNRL
Chain of Intestinal-type alkaline phosphatase (Homo sapiens, UniProt P09923) (P09923 whole entry): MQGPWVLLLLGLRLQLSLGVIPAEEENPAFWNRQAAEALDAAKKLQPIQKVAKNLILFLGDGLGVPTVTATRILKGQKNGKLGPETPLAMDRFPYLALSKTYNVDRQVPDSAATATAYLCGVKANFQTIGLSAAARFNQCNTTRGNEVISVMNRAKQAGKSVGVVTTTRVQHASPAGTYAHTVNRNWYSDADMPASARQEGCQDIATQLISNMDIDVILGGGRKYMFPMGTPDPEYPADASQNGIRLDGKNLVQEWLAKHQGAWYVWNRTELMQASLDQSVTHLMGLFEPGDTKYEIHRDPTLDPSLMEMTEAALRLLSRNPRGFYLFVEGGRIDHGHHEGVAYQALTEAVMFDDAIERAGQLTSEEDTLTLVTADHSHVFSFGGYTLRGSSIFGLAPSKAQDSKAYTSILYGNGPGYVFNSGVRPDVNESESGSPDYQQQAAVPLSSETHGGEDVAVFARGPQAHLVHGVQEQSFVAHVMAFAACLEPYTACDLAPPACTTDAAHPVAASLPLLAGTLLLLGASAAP
Chain of NAD-dependent protein deacylase sirtuin-5, mitochondrial (Q9NXA8 whole entry): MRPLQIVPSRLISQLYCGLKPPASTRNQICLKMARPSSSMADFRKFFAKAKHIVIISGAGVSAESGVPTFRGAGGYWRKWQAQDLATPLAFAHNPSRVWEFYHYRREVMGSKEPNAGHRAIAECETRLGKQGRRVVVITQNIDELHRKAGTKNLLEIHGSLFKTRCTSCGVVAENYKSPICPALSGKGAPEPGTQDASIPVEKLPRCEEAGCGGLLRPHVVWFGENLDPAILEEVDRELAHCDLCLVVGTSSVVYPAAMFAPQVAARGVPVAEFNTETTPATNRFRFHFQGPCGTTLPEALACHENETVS
Chain of 1-phosphatidylinositol 4,5-bisphosphate phosphodiesterase beta-3 (Q01970 whole entry): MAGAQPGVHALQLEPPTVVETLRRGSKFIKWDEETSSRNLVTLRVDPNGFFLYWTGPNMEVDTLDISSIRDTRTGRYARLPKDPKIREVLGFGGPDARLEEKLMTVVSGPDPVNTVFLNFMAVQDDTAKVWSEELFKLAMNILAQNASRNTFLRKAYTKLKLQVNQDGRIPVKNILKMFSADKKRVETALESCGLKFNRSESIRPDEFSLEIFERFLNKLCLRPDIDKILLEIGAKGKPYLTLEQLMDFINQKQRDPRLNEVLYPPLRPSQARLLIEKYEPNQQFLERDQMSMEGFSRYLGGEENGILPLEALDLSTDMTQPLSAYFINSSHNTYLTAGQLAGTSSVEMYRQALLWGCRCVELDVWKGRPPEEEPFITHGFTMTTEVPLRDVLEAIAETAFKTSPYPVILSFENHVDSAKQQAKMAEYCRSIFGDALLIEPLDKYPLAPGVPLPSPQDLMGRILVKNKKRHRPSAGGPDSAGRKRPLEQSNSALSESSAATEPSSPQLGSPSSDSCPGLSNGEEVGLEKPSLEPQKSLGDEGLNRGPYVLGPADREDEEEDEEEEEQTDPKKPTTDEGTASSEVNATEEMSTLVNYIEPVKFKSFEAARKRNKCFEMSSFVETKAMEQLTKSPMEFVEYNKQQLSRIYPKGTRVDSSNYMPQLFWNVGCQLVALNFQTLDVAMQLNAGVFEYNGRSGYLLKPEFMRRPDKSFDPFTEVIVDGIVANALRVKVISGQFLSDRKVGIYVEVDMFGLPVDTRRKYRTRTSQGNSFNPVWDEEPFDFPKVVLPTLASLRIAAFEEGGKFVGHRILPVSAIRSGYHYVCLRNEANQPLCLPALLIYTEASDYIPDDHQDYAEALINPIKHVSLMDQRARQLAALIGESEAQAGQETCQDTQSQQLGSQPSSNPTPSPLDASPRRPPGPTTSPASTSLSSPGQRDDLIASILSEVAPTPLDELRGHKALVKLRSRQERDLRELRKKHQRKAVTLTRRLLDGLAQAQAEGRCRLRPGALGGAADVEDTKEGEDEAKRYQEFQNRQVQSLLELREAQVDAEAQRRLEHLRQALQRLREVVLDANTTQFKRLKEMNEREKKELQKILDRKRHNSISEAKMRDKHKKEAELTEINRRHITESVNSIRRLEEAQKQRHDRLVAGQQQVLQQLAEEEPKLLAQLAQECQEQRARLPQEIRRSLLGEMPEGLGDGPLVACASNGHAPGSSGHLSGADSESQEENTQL

C=CC1=C(C(=O)O)N2C(=O)[C@@H](NC(=O)/C(=N\OCC(=O)O)c3csc(N)n3)[C@H]2SC1 [CEFIXIME]
EC50 [1]: 9.08 µM (active) | IC50 [2]: > 122 µM (inactive) | IC50 [3]: > 66.6 µM (inactive) | IC50 [4]: 1.21 µM (active) | IC50 [5]: 1.48 µM (active) | AC50 [6]: 17.9 µM (active)

Cc1cccnc1Nc1nc(-c2ccc(O)c(O)c2)cs1
EC50 [7]: 13.3 µM (active) | EC50 [8]: 13.6 µM (active) | CC50 [9]: > 40 µM (active) | IC50 [10]: 8.95 µM (active) | IC50 [11]: 4.03 µM (active) | IC50 [12]: > 100 µM (inactive) | IC50 [13]: > 51.1 µM (active) | AC50 [14]: > 20 µM (inactive) | IC50 [15]: 9.5 µM (active) | CC50 [16]: 21.2 µM (active) | IC50 [17]: > 100 µM (inactive)

Nc1ccc(S(=O)(=O)Nc2ccnn2-c2ccccc2)cc1 [SULFAPHENAZOLE]
AC50 (Cytochrome P450 1A2): inactive | AC50 (Cytochrome P450 2C19): inactive; also recorded: inconclusive | AC50 (Cytochrome P450 2D6): inactive

C[C@@H]1CN([C@@H](C)CO)C(=O)c2cccc(NC(=O)Nc3cccc4ccccc34)c2O[C@H]1CN(C)C(=O)Nc1ccc(C(F)(F)F)cc1
AC50 [18]: 40.7 µM (active)
